{"source": "paper PMC12268802", "about": "“The herbicidal natural product phosphonothrixin is an inhibitor of the riboflavin biosynthetic enzyme L‐3,4‐dihydroxy‐2‐butanone‐4‐phosphate synthase” (Pest Management Science, 2025)", "molecules": {"B1": {"name": "AtDHBPS (Arabidopsis thaliana) (protein)", "chain": "MFVAEDDDFELDLPTPGFSSIPEAIEDIRQGKLVVVVDDEDRENEGDLVMAAQLATPEAMAFIVRHGTGIVCVSMKEDDLERLHLPLMVNQKENEEKLSTAFTVTVDAKHGTTTGVSARDRATTILSLASRDSKPEDFNRPGHIFPLKYREGGVLKRAGHTEASVDLTVLAGLDPVGVLCEIVDDDGSMARLPKLREFAAENNLKVVSIADLIRYRRKRDKLVERASKGGRADPAFLYKVVINSKLEGKPIPNPLLGLDSTRTGHHHHHH", "notes": "made in house; host or cells: Escherichia coli BL21(DE3)"}}, "key": {"[1]": {"test_system": "imidazoleglycerol phosphate dehydratase", "design": "method as in PMID 12228396", "conditions": "cited from earlier work"}, "[2]": {"conditions": "cited from earlier work"}, "EPSP synthase": {"test_system": "EPSP synthase", "design": "method as in PMID 1939260", "conditions": "from several higher plants; cited from earlier work"}, "Lemna gibba": {"test_system": "Lemna gibba", "experiment": "Lemna gibba growth assay", "assay_type": "in vivo", "conditions": "7 days", "experimental": "Growth experiments were performed in sterile 6‐well cell culture plates and were initiated by transferring four Lemna gibba fronds per well to 5 mL of K‐medium[22] pH 4.8 containing 1% (w/v) sucrose and a selected concentration of phosphonothrixin (1) and riboflavin determined from previous experiments. The cell culture plates were incubated for 7 days in a growth cabinet at 22 °C and a continuous photon flux density of 75 μE/m^2s."}, "[3]": {"molecular_target": "dihydroxy‐acid dehydratase", "design": "method as in PMID 29995859", "conditions": "Arabidopsis enzyme; cited from earlier work"}, "DHBPS activity assay": {"substrate": "O=C(CO)[C@H](O)[C@H](O)COP(=O)(O)O", "experiment": "DHBPS activity assay", "assay_type": "biochemical, Arabidopsis thaliana", "conditions": "other: substrate varied 0 to 2 mM; pH 6.5", "experimental": "DHBPS activity assays were out carried in 96‐well microtiter plates using a modification of the procedure previously described.[18] The reaction mixture contained 100 mM MES (2‐morpholinoethanesulfonic acid) buffer pH 6.5, 20 mM MgCl2, 20 mM D‐ribose‐5‐phosphate (Sigma‐Aldrich R7750), 0.02% Tween‐20, 0.2 mg BSA, 0.5 μg of spinach phosphoriboisomerase (Sigma‐Aldrich P9752) and DHBPS enzyme in a final volume of 110 μL. Assays were initiated by adding enzyme and terminated after 120 min incubation at rt by the addition of 90 μL of a solution of 3.5% α‐naphthol and 0.2% creatine in 2 N NaOH. After an additional 45 min incubation at rt the absorbance was determined at 540 nm. The pI50‐value for inhibition by phosphonothrixin (1) was determined with the XLFit Excel add‐in version 4.3.1 curve fitting program of ID Business Solutions Limited. […] Reaction velocities were fitted to the Michaelis–Menten equation with the XLFit curve fitting program."}, "[4]": {"conditions": "50 μM riboflavin in the presence of 100 μM phosphonothrixin"}}}
{"molecule": "O=P(O)(O)[C@H]1CCC[C@@](O)(c2nc[nH]n2)C1", "note": "(relative stereo) [IRL1803, trans‐(3‐hydroxy‐3‐(1H‐1,2,4‐triazol‐3‐yl)cyclohexyl)‐phosphonic acid]", "values": [{"measurement": "potency against imidazoleglycerol phosphate dehydratase", "setting": "[1]", "result": "nanomolar inhibitor"}, {"measurement": "application rate required for a significant herbicidal effect", "setting": "[2]", "result": "~1", "unit": "kg ha^−1"}]}
{"molecule": "O=C(O)CNCP(=O)(O)O", "note": "[glyphosate]", "values": [{"measurement": "IC50-values, EPSP synthase", "setting": "EPSP synthase", "result": "single and double‐digit micromolar range"}]}
{"molecule": "Cc1cc2nc3c(=O)[nH]c(=O)nc-3n(C[C@H](O)[C@H](O)[C@H](O)CO)c2cc1C", "note": "[riboflavin]", "values": [{"measurement": "bleaching of Lemna gibba fronds", "setting": "Lemna gibba; 50 μM riboflavin alone", "result": "some mild bleaching of the fronds"}, {"measurement": "growth of Lemna gibba", "setting": "Lemna gibba; 50 μM riboflavin alone", "result": "did not affect the growth"}, {"measurement": "reversal of bleaching of Lemna gibba", "setting": "Lemna gibba; [4]", "result": "reversed the bleaching phenotype to the level observed in the experiment where only riboflavin had been applied"}, {"measurement": "reversal of growth inhibition of Lemna gibba", "setting": "Lemna gibba; [4]", "result": "almost completely alleviated the growth inhibition"}]}
{"molecule": "aspterric acid", "values": [{"measurement": "IC50", "setting": "[3]", "result": 500, "unit": "nM"}]}
{"molecule": "B1", "values": [{"measurement": "Km", "setting": "DHBPS activity assay", "result": "150 ± 20", "unit": "µM"}]}
